Assay [1] addresses T1, Ins(1,3,4,5,6)P5 1-phosphatase activity of Ins(3,4,5,6)P4 kinase (Homo sapiens, UniProt Q13572).
T1 construct: made in house; host or cells: E. coli
T1 sequence (Q13572 1-414): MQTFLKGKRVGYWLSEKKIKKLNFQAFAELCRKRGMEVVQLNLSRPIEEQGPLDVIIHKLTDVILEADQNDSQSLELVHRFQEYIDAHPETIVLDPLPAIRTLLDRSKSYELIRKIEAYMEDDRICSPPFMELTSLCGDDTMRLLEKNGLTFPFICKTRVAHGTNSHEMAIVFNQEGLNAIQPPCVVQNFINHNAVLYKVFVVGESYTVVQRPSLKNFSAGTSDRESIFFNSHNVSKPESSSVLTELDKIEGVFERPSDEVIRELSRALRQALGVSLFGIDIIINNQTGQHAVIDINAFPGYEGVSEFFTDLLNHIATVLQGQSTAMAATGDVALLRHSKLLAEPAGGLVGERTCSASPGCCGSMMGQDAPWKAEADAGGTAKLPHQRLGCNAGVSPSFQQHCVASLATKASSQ
As to the kind of experiment: Inositol phosphate phosphatase activity assay with ADP (HPLC). It is filed as biochemical. On the procedure:
Ins(3,4,5,6)P4 kinase (0.4 μg) was incubated for 30 min in 100 μl phosphatase assay buffer (see Methods) either with (closed circles) or without (open circles) 5 mM ADP plus trace-amounts of either [^3H]Ins(1,3,4,5,6)P5 (panel A) [^3H]Ins(1,3,4,6)P4 (panel B), or [^3H]Ins(1,3,4,5)P4 (panel C). Samples were analyzed by HPLC (see Methods). The elution positions of Ins(1,3,4)P3 and Ins(3,4,5,6)P4 were verified with genuine standards. The elution positions of Ins(1,3,4,6)P4 (106 min, panel B) and of Ins(1,3,4,5)P4 (110 min, panel C) exclude these as products of InsP5 dephosphorylation (panel A).
Additional incubations were performed with 5 μM [^3H]Ins(1,3,4)P3 (approx. 1200 d.p.m.) plus either no Ins(1,3,4,5,6)P5 (open circles) or 5 μM non-radiolabeled Ins(1,3,4,5,6)P5 (closed circles); these reactions were assayed by HPLC (Synchropak Q100 column) and the InsP4 region of the chromatogram is shown in Panel B.
Inositol phosphate phosphatase activity was assayed in buffer containing 100 mM KCl, 20 mM HEPES pH 7.2, 5 mM ADP, 6 mM MgSO4, 0.3 mg/ml bovine serum albumin. Assays were acid-quenched, neutralized and analyzed by HPLC using a Synchropak Q100 columm (Caffrey et al., “Expanding Coincident Signaling by PTEN through its Inositol 1,3,4,5,6-Pentakisphosphate 3-phosphatase Activity,” FEBS Lett 499: 6-10 (2001)); 1 ml fractions were collected for 70 min., followed by 0.5 ml fractions. Inositol phosphate kinase activity was assayed in buffer containing 100 mM KCl, 20 mM HEPES pH 7.2, 5 mM ATP, 10 mM phosphocreatine, 6 mM MgSO4, 10 μg/ml creatine phosphokinase (Calbiochem), 0.3 mg/ml bovine serum albumin. Some assays were acid-quenched and analyzed by HPLC using a Synchropak Q100 column. Other reactions were heat-inactivated (95° C., 3 min) and analyzed by a metal dye detection, HPLC method (Mayr, “A novel metal-dye detection sysytem permits picomolar-range h.p.l.c. analysis of inositol polyphosphates from non-radioactively labelled cell or tissue specimens,” Biochem J 254: 585-591 (1988); Adelt et al., “Enzyme-assisted total synthesis of the optical antipodes D-myo-inositol 3,4,5-trisphosphate and D-myo-inositol 1,5,6-trisphosphate: aspects of their structure-activity relationship to biologically active inositol phosphates,” J Med Chem 42: 1262-1273 (1999)).

In assay [2] the test system is calcium-activated Cl− channels. As to the kind of experiment: Whole-cell Cl− current in CFPAC-1 cells (bio-assay for Ins(3,4,5,6)P4). The settings on record: 10 μM in CFPAC-1 cells; control 54±3 pA/pF; +40 mV, free [Ca2+] 0.5 μM. It is filed as cell-based, human. How it is done: T84 cells were detached by incubation with 0.25% (w/v) trypsin/0.02% (w/v) EDTA for 5-6 min. After trypsin removal, 200 μl aliquots (1.5×10^6/ml) were seeded into the circular wells (area=0.45 cm^2) of permeable supports, made by gluing (Silastic® sealant, Dow Corning, Midland, Mich.) a Sylgard® ring to filters composed of mixed cellulose esters (Millipore Corp., Bedford, Mass.). Seeded supports were floated on culture medium and incubated for 11-14 days before being mounted in modified Snapwell holders in Using chambers (EasyMount System, Physiologics Instruments, San Diego, Calif.). Transcellular Cl^− flux was then recorded as the short-circuit current as previously described. The resistance of the monolayers were (vector) 346±44 ohms/cm^2 (mean±se, n=12) and (kinase) 354±62 ohms/cm^2 (mean±se, n=12). Whole-cell Cl^− currents in CFPAC—I cells were measured at +40 mV as previously described using an intracellular Ca^2+-BAPTA buffer to clamp free [Ca^2+] to 0.5 μM [8]. One possibility is that Ins(3,4,5,6)P4 originates by phosphorylation of an InsP3 precursor. […] Control whole-cell Cl^− current (54±3 pA/pF, n—17) was reduced to 24±3 pA/pF (n=7) by 10 μM Ins(3,4,5,6)P4.

In assay [3] the test system is calcium-activated Cl− channels. The conditions noted are these: read-out: sensitivity of calcium-activated Cl− channels to Ins(3,4,5,6)P4 (IC50); cited from earlier work.

On to `O=P(O)(O)OC1[C@@H](OP(=O)(O)O)[C@H](OP(=O)(O)O)C(O)[C@H](OP(=O)(O)O)[C@H]1OP(=O)(O)O` (stereo partly shown) [Ins(1,3,4,5,6)P5, inositol 1,3,4,5,6-pentakisphosphate], for which the “product of ADP-dependent dephosphorylation” value in assay [1] (5 mM ADP, trace amounts of substrate) is “dephosphorylated to an [^3H]InsP4 peak co-eluting upon HPLC with a standard of Ins(3,4,5,6)P4”. Further, in assay [1] (with Ins(1,3,4)P3 present), the Vmax for dephosphorylation is listed as 82 pmol/μg protein/min.
As a reminder, the IC50 is the midpoint of a concentration-inhibition curve. On to `O=P(O)(O)OC1C(O)C(O)C(OP(=O)(O)O)C(OP(=O)(O)O)C1OP(=O)(O)O` (stereo not shown) [Ins(3,4,5,6)P4, inositol 3,4,5,6-tetrakisphosphate], for which the “whole-cell Cl− current” value in assay [2] is listed as 24±3 pA/pF. In assay [3], the half-maximal inhibitory concentration (IC50) was 3000 nM.

The values are drawn from patent US20060035810A1, “Regulation of ins(3456)p4 signalling by a reversible kinase phosphatase and methods and compositions related thereto” (priority 2002, published 2006).
